# pIC50: −log10 of the molar value.
# Target: P2X3 receptor
# Experiment: Antagonist activity against rat or human P2X3 receptor expressed in HEK293/1321N1 cells assessed as inhibition of alpha,beta-meATP/ATP-induced calcium influx by Fluo-4 dye based FLIPR assay
# Format: functional, cell-based
row,SMILES,pIC50
1,Cc1ccc(N2CCc3ncnc(NCc4ccc5cc[nH]c5c4)c3C2)c(C#N)c1,6.37
2,N#Cc1cc(Cl)ccc1N1CCc2ncnc(NCc3ccc(C(F)(F)F)cn3)c2C1,6.93
3,CC(=O)OCC[C@@H](Nc1ncnc2c1CN(c1ccc(C)cc1C#N)CC2)c1ccc(C(F)(F)F)nc1,6.89
4,N#Cc1cc(Cl)ccc1N1CCc2ncnc(N[C@H](CCO)c3ccc(C(F)(F)F)nc3)c2C1,7.05
5,Cc1nc(C(F)(F)F)ccc1CNc1ncnc2c1CN(c1ccc(Cl)cc1C#N)CC2,6.73
6,N#Cc1cc(Br)ccc1N1CCc2ncnc(NCc3ccc(C(F)(F)F)nc3)c2C1,7.10
7,COc1ccc([C@H](CC(=O)OC(C)(C)C)Nc2ncnc3c2CN(c2ccc(Cl)cc2C#N)CC3)cn1,< 5.00
8,Cc1ccc(N2CCc3ncnc(NCc4ccccn4)c3C2)c(C#N)c1,6.71
9,CSc1cc(CNc2ncnc3c2CN(c2ccc(C)cc2C#N)CC3)ccc1C,6.32
10,Cc1ccc(N2CCc3ncnc(NCc4ccc(C)c(N5CCOCC5)c4)c3C2)c(C#N)c1,7.02
11,N#Cc1cc(Cl)ccc1N1CCc2ncnc(NCc3ccc4nccnc4c3)c2C1,6.90
12,CN(C)c1ccc(CNc2ncnc3c2CN(c2ccc(Cl)cc2C#N)CC3)cn1,6.20
13,Cc1ccc(N2CCc3ncnc(N[C@@H](CCO)c4ccc(C(F)(F)F)nc4)c3C2)c(C#N)c1,6.09
14,N#Cc1cc(C2CC2)ccc1N1CCc2ncnc(NCc3ccc(C(F)(F)F)nc3)c2C1,6.06
15,Cc1ccc(N2CCc3ncnc(NCc4ccc(C5CC5)cn4)c3C2)c(C#N)c1,6.63
16,N#Cc1cc(C(F)(F)F)ccc1N1CCc2ncnc(NCc3ccc(C(F)(F)F)nc3)c2C1,5.74
17,COc1ccc(CNc2ncnc3c2CN(c2ccc(Br)cc2C#N)CC3)cn1,7.11
18,Cc1ccc(N2CCc3ncnc(NCc4ccc(C)c(I)c4)c3C2)c(C#N)c1,6.29
19,Cc1ccc(N2CCc3ncnc(NCc4cccc(C#N)c4)c3C2)c(C#N)c1,6.74
20,N#Cc1cc(F)ccc1N1CCc2ncnc(NCc3ccc(C(F)(F)F)nc3)c2C1,7.07
21,Cc1ccc(N2CCc3ncnc(NCc4ccc(Cl)nc4)c3C2)c(C#N)c1,7.96
22,Cc1ccc(N2CCc3ncnc(NCc4cccc(-n5cnnc5)c4)c3C2)c(C#N)c1,7.19
23,Cc1ccc(N2CCc3ncnc(NCc4ccc5ccccc5n4)c3C2)c(C#N)c1,6.81
24,N#Cc1cc(Cl)ccc1N1CCc2ncnc(NCc3ccn4ccnc4c3)c2C1,6.91
25,COc1ccc([C@@H](CC(=O)O)Nc2ncnc3c2CN(c2ccc(Cl)cc2C#N)CC3)cn1,5.86
26,Cc1ccc(N2CCc3ncnc(NCc4ccc(C)c(F)c4)c3C2)c(C#N)c1,7.05
27,N#Cc1cc(Cl)ccc1N1CCc2ncnc(NCc3ncc(C(F)(F)F)cc3Cl)c2C1,7.04
28,N#Cc1cc(Cl)ccc1N1CCc2ncnc(NCc3cccc(-n4cnnc4)c3)c2C1,6.55

# The next lines start with the values.
row,pIC50,SMILES
1,7.64,Cc1ccc(N2CCc3ncnc(N[C@H](CCO)c4ccc(C(F)(F)F)nc4)c3C2)c(C#N)c1
2,7.54,Cc1ccc(N2CCc3ncnc(NCc4ccc(Cl)cn4)c3C2)c(C#N)c1
3,7.80,N#Cc1cc(Cl)ccc1N1CCc2ncnc(N[C@H](CO)c3ccc(C(F)F)nc3)c2C1
4,7.47,Cc1ccc(N2CCc3ncnc(NCc4ccc5nccnc5c4)c3C2)c(C#N)c1
5,7.20,N#Cc1ccccc1N1CCc2ncnc(NCc3ccc(C(F)(F)F)nc3)c2C1
6,7.89,Cc1ccc(N2CCc3ncnc(N[C@H](CCO)c4ccc(C(F)F)nc4)c3C2)c(C#N)c1
7,7.68,Cc1ccc(N2CCc3ncnc(NCc4ccc(C)c(-n5cncn5)c4)c3C2)c(C#N)c1
8,7.25,Cc1ccc(N2CCc3ncnc(NCc4ccc5c(c4)OCO5)c3C2)c(C#N)c1
9,7.39,N#Cc1cc(Cl)ccc1N1CCc2ncnc(NCc3ccc(Cl)c(-n4cnnc4)c3)c2C1
10,7.70,Cc1ccc(N2CCc3ncnc(NCc4ccc5cccnc5c4)c3C2)c(C#N)c1
11,7.40,Cc1ccc(CNc2ncnc3c2CN(c2ccc(Cl)cc2C#N)CC3)cc1S(C)(=O)=O
12,7.82,Cc1ccc(N2CCc3ncnc(NCc4ccc5ocnc5c4)c3C2)c(C#N)c1
13,7.43,N#Cc1cc(Cl)ccc1N1CCc2ncnc(NCc3ccc(C(F)(F)F)nc3)c2C1
14,7.42,CCc1ccc(CNc2ncnc3c2CN(c2ccc(C)cc2C#N)CC3)cn1
15,7.23,COc1ccc(CNc2ncnc3c2CN(c2ccc(Cl)cc2C#N)CC3)cn1
16,7.39,Cc1ccc(N2CCc3ncnc(NCc4ncc(Cl)cc4Cl)c3C2)c(C#N)c1
17,7.48,COc1ccc([C@@H](CCO)Nc2ncnc3c2CN(c2ccc(Cl)cc2C#N)CC3)cn1
18,7.72,Cc1ccc(N2CCc3ncnc(NCc4ccc(C(F)(F)F)nc4)c3C2)c(C#N)c1
19,7.27,N#Cc1cc(Cl)ccc1N1CCc2ncnc(N[C@H](CO)c3ccc(C(F)(F)F)nc3)c2C1
20,7.20,Cc1ccc(N2CCc3ncnc(NCc4ccc(C)c(C#N)c4)c3C2)c(C#N)c1
21,7.49,N#Cc1cc(Cl)ccc1N1CCc2ncnc(N[C@H](CCO)c3ccc(C(F)F)nc3)c2C1
22,7.74,Cc1ccc(N2CCc3ncnc(NCc4ccn5ccnc5c4)c3C2)c(C#N)c1
23,7.80,Cc1ccc(N2CCc3ncnc(NCc4ccc(C)c(S(C)(=O)=O)c4)c3C2)c(C#N)c1
24,7.26,Cc1ccc(N2CCc3ncnc(NC(CCO)c4ccc(C(F)(F)F)nc4)c3C2)c(C#N)c1 (configuration not stated)
25,7.68,Cc1ccc(N2CCc3ncnc(N[C@H](CO)c4ccc(C(F)(F)F)nc4)c3C2)c(C#N)c1
26,7.51,Cc1ccc(N2CCc3ncnc(NCc4ccc(Cl)c(-n5cnnc5)c4)c3C2)c(C#N)c1
27,7.64,COc1ccc([C@@H](CO)Nc2ncnc3c2CN(c2ccc(Cl)cc2C#N)CC3)cn1
28,7.43,Cc1ccc(N2CCc3ncnc(NCc4ccc(Cl)c(S(C)(=O)=O)c4)c3C2)c(C#N)c1

# Target: T1, P2X2/P2X3 heterotrimeric receptor (Homo sapiens, UniProt P56373+Q9UBL9)
# T1 sequence (Q9UBL9 whole entry): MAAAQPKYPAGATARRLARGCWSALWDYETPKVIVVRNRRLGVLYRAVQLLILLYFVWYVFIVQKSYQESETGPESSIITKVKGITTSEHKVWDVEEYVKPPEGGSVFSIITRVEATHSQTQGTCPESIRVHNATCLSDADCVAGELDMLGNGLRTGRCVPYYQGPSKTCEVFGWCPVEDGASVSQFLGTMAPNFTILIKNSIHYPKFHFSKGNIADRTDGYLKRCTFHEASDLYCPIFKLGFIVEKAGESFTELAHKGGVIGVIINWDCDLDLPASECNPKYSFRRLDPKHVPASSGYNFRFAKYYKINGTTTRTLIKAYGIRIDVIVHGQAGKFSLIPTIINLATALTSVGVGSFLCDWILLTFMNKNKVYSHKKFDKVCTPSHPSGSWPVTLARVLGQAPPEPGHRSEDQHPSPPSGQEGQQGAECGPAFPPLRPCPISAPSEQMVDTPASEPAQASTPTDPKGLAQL
# T1 sequence (P56373 whole entry): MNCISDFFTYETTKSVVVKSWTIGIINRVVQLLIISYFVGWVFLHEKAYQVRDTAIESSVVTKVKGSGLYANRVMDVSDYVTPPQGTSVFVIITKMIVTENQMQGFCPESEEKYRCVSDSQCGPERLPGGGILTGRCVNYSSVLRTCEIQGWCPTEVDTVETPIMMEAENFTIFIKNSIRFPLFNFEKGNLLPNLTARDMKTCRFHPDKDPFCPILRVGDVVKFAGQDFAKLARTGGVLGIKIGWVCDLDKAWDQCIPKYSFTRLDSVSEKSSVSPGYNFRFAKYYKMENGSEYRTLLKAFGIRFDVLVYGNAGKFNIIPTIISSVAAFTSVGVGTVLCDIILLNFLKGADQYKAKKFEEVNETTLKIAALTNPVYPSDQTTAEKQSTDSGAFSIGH
# Experiment: Antagonist activity against human P2X2/3 receptor expressed in HEK293/1321N1 cells assessed as inhibition of alpha,beta-meATP/ATP-induced calcium influx by Fluo-4 dye based FLIPR assay
# Format: functional, cell-based
row,pIC50,SMILES
1,< 5.00,COc1ccc([C@H](CC(=O)OC(C)(C)C)Nc2ncnc3c2CN(c2ccc(Cl)cc2C#N)CC3)cn1

# From ChEMBL document CHEMBL3727369, “2-cyanophenyl fused heterocyclic compounds, and compositions and uses thereof” (2013)
